Four molecules from ChEMBL document CHEMBL4609994, “Application of protein knockdown strategy targeting β-sheet structure to multiple disease-associated polyglutamine proteins” (Bioorg Med Chem, 2020) can be followed below.

Activity calls are given as the source filed them. The calls are words filed in the database; no cut-off is given here.

Experiment [1] deals with Baculoviral IAP repeat-containing protein 2/Ataxin-3 (Homo sapiens), Q13490+P54252 [UNDEFINED MUTATION]. The experiment is described as follows: Protac activity at C-IAP1/Ataxin-3 mutant in fibroblasts derived from SCA3 patient assessed as reduction in mutant ataxin-3 expression after 24 to 48 hrs by Western blot analysis. In general terms: A western blot detects proteins with antibodies after separation by electrophoresis.
Sequence of Baculoviral IAP repeat-containing protein 2/Ataxin-3 (Homo sapiens), Q13490+P54252 [UNDEFINED MUTATION] (P54252 whole entry, looked up, stated change not applied): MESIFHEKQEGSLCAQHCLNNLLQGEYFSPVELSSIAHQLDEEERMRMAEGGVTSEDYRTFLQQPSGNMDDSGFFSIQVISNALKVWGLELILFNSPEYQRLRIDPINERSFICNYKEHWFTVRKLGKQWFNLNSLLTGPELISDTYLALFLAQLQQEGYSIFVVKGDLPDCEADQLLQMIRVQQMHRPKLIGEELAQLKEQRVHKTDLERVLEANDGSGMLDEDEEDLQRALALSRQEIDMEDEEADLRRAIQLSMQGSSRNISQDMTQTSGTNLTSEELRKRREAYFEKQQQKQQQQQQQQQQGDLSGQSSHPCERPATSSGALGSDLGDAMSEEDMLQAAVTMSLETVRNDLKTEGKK
Sequence of Baculoviral IAP repeat-containing protein 2/Ataxin-3 (Homo sapiens), Q13490+P54252 [UNDEFINED MUTATION] (Q13490 whole entry, looked up, stated change not applied): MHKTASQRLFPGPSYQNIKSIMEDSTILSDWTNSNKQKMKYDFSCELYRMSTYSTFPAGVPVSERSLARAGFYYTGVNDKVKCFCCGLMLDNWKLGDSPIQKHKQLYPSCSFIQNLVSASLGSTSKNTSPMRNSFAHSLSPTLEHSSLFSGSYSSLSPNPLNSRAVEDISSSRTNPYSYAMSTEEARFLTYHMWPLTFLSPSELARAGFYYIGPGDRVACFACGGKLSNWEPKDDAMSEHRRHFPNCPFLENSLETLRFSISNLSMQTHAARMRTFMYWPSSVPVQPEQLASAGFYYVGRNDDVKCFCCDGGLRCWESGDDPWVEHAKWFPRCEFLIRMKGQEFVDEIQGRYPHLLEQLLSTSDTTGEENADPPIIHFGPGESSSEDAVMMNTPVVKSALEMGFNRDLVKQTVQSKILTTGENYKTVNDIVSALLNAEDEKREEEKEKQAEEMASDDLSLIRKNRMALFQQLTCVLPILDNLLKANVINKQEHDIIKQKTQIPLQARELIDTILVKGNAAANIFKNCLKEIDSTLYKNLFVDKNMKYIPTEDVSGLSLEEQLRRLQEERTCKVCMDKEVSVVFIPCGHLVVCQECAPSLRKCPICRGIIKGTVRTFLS

In experiment [2] the test system is Baculoviral IAP repeat-containing protein 2/Ataxin-7 (Homo sapiens), Q13490+O15265 [UNDEFINED MUTATION]. The experiment is described as follows: Protac activity at C-IAP1/ataxin-7 mutant in fibroblasts derived from SCA7 patient assessed as reduction in mutant ataxin-7 expression after 24 to 48 hrs by Western blot analysis.
Sequence of Baculoviral IAP repeat-containing protein 2/Ataxin-7 (Homo sapiens), Q13490+O15265 [UNDEFINED MUTATION] (O15265 whole entry, looked up, change not shown): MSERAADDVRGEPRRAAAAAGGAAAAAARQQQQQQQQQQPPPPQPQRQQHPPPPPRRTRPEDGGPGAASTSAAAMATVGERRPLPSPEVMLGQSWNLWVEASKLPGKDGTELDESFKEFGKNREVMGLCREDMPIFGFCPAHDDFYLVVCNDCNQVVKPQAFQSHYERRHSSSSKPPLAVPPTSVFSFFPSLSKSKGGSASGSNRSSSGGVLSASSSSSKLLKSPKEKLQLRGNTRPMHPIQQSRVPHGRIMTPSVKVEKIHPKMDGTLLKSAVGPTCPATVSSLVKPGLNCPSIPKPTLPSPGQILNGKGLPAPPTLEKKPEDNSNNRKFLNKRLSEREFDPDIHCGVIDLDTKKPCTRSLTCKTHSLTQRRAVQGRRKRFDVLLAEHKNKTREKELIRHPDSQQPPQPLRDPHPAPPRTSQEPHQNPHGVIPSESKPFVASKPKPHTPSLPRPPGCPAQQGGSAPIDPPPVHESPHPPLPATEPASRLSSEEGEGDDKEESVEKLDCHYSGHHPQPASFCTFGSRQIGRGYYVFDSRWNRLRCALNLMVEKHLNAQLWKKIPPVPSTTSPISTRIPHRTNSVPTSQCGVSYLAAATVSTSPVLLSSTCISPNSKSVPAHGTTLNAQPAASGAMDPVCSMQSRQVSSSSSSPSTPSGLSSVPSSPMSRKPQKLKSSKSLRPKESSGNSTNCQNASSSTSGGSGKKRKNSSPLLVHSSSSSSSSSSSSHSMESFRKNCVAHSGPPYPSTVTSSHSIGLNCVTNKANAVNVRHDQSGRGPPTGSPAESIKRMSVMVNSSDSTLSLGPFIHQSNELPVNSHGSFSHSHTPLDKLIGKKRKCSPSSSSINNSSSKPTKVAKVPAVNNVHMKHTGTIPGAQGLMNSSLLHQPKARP
Sequence of Baculoviral IAP repeat-containing protein 2/Ataxin-7 (Homo sapiens), Q13490+O15265 [UNDEFINED MUTATION] (Q13490 whole entry, looked up, change not shown): as the sequence (Q13490 whole entry, looked up, stated change not applied) above
The subject of experiment [3] is Baculoviral IAP repeat-containing protein 2/Atrophin-1 (Homo sapiens), Q13490+P54259 [UNDEFINED MUTATION]. Briefly: Protac activity at C-IAP1/atrophin-1 mutant in fibroblasts derived from DRPLA patient assessed as reduction in mutant atrophin-1 expression after 24 to 48 hrs by Western blot analysis.
Experiment [4] concerns Baculoviral IAP repeat-containing protein 2/Ataxin-3 (Homo sapiens), Q13490+P54252 [UNDEFINED MUTATION]. The experiment is described as follows: Protac activity at C-IAP1/ataxin-3 mutant in fibroblasts derived from SCA3 patient assessed as reduction in mutant ataxin-3 expression at 10 uM by Western blot analysis. The conditions noted are these: TDE = time-dependent effect.

The test system of experiment [5] is Baculoviral IAP repeat-containing protein 2/Ataxin-7 (Homo sapiens), Q13490+O15265 [UNDEFINED MUTATION]. The experiment is described as follows: Protac activity at C-IAP1/ataxin-7 mutant in fibroblasts derived from SCA7 patient assessed as reduction in mutant ataxin-7 expression at 10 uM by Western blot analysis. To be noted: TDE = time-dependent effect.
Experiment [6] relates to Baculoviral IAP repeat-containing protein 2/Atrophin-1 (Homo sapiens), Q13490+P54259 [UNDEFINED MUTATION]. The experiment is described as follows: Protac activity at C-IAP1/atrophin-1 mutant in fibroblasts derived from DRPLA patient assessed as reduction in mutant atrophin-1 expression at 10 uM by Western blot analysis. To be noted: TDE = time-dependent effect.
Sequence of Baculoviral IAP repeat-containing protein 2/Atrophin-1 (Homo sapiens), Q13490+P54259 [UNDEFINED MUTATION] (P54259 whole entry, looked up, change not shown): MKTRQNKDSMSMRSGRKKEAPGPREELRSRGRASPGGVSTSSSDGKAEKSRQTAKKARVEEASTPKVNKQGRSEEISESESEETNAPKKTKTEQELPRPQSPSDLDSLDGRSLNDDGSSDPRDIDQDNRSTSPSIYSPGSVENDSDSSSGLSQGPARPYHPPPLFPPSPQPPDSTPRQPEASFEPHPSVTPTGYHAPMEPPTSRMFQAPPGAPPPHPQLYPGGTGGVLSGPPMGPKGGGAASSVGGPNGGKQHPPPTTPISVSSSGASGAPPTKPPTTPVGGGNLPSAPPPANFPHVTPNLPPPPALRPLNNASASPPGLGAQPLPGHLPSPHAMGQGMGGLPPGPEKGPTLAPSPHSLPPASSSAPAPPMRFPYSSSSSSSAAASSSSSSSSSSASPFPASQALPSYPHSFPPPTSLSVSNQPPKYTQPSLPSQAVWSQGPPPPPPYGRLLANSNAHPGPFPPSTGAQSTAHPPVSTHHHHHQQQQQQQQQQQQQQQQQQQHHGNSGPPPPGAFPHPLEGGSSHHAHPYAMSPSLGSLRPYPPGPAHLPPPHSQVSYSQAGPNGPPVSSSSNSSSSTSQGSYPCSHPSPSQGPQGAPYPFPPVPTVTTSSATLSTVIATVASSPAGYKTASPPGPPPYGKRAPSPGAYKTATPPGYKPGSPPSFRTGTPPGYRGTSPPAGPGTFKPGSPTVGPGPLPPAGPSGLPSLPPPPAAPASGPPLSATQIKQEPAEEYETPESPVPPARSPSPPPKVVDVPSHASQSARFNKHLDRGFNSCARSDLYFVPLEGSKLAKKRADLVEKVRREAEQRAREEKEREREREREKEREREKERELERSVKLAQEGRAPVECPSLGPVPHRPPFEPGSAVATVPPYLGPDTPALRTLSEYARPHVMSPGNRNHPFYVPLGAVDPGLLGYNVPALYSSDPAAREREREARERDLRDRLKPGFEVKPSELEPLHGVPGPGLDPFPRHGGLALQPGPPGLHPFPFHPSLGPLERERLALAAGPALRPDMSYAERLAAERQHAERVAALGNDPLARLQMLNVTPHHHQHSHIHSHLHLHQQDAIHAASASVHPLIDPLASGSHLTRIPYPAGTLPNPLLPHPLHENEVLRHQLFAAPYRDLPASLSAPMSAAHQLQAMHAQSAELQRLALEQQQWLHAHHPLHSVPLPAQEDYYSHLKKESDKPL
Sequence of Baculoviral IAP repeat-containing protein 2/Atrophin-1 (Homo sapiens), Q13490+P54259 [UNDEFINED MUTATION] (Q13490 whole entry, looked up, change not shown): as the sequence (Q13490 whole entry, looked up, stated change not applied) above
Experiment [7] concerns Baculoviral IAP repeat-containing protein 2/Ataxin-7 (Homo sapiens), Q13490+O15265 [UNDEFINED MUTATION]. Briefly: Protac activity at C-IAP1/ataxin-7 mutant in fibroblasts derived from SCA7 patient assessed as reduction in mutant ataxin-7 expression at 10 uM after 24 hrs by Western blot analysis.
Experiment [8] deals with Baculoviral IAP repeat-containing protein 2/Atrophin-1 (Homo sapiens), Q13490+P54259 [UNDEFINED MUTATION]. The experiment is described as follows: Protac activity at C-IAP1/atrophin-1 mutant in fibroblasts derived from DRPLA patient assessed as reduction in mutant atrophin-1 expression at 10 uM after 24 hrs by Western blot analysis.
In experiment [9] the test system is Baculoviral IAP repeat-containing protein 2/Ataxin-7 (Homo sapiens), Q13490+O15265 [UNDEFINED MUTATION]. The experiment is described as follows: Protac activity at C-IAP1/ataxin-7 mutant in fibroblasts derived from SCA7 patient assessed as reduction in mutant ataxin-7 expression at 10 uM after 24 hrs in presence of proteasome inhibitor MG132 by Western blot analysis.

The test system of experiment [10] is Baculoviral IAP repeat-containing protein 2/Atrophin-1 (Homo sapiens), Q13490+P54259 [UNDEFINED MUTATION]. The experiment is described as follows: Protac activity at C-IAP1/atrophin-1 mutant in fibroblasts derived from DRPLA patient assessed as reduction in mutant atrophin-1 expression at 10 uM after 24 hrs in presence of proteasome inhibitor MG132 by Western blot analysis.

Experiment [11] concerns Baculoviral IAP repeat-containing protein 2/Ataxin-7 (Homo sapiens), Q13490+O15265 [UNDEFINED MUTATION]. Briefly: Protac activity at C-IAP1/ataxin-7 mutant in fibroblasts derived from SCA7 patient assessed as reduction in mutant ataxin-7 expression at 10 uM after 24 hrs in presence of proteasome inhibitor epoxomicin by Western blot analysis.
The subject of experiment [12] is Baculoviral IAP repeat-containing protein 2/Atrophin-1 (Homo sapiens), Q13490+P54259 [UNDEFINED MUTATION]. The experiment is described as follows: Protac activity at C-IAP1/atrophin-1 mutant in fibroblasts derived from DRPLA patient assessed as reduction in mutant atrophin-1 expression at 10 uM after 24 hrs in presence of proteasome inhibitor epoxomicin by Western blot analysis.

On to `Cc1ccc2nc(-c3ccc(NCCOCCOCCNC(=O)[C@H](CC(C)C)NC(=O)[C@@H](O)[C@H](N)Cc4ccccc4)cc3)sc2c1`, for which the Activity entry was “Dose-dependent effect” in experiment [1]; “Dose-dependent effect” in experiment [2]; “Dose-dependent effect” in experiment [3]; “Tde” in experiment [4]; “Tde” in [5]; “Tde” in experiment [6]. The outcome in experiment [7] and in experiment [8] was Active. Also, the result in experiment [9], in experiment [10], in [11] and in [12] was inactive.
`CNc1ccc(-c2nc3ccc(C)cc3s2)cc1`: the result in experiment [7] and in experiment [8] was inactive.
Turning to `CNC(=O)[C@H](CC(C)C)NC(=O)[C@@H](O)[C@H](N)Cc1ccccc1`, the result in experiment [7] and in [8] was inactive.
Consider `CC(C)C[C@H](NC(=O)[C@@H](O)[C@H](N)Cc1ccccc1)C(=O)NCCOCCOCCOc1ccc2nc(/N=N/c3ccc(N(C)C)cc3)sc2c1`, for which the Activity result in [1] is “Dose-dependent effect”; in experiment [2], “Dose-dependent effect”; in experiment [3] it was “Dose-dependent effect”; in experiment [4], “Tde”; in [5], “Tde”; in [6], “Tde”.
